According to patent US10322111B2, “Chemokine receptor binding heterocyclic compounds with enhanced efficacy” (Genzyme Corporation, priority 2001, dated 2019):
Read-outs that look alike come from different tables or passages of the source.

Key:
CFU-GM progenitor cells = conditions: 80 μg/kg s.c.; for % CHG, CFU-GM, agar culture / mean fold change compared to T 0, CFU-GM, agar culture, MEAN: all five donors

c1cc(CN2CCCNCCNCCCNCC2)ccc1CN1CCCNCCNCCCNCC1 [AMD3100, 1,1′-[1,4-phenylene-bis(methylene)]-bis-1,4,8,11-tetraazacyclotetradecane]
Absolute # of Progenitors per ML, CFU-GM, AGAR Culture (CFU-GM progenitor cells; P2, T = 6 h after injection): 2409 per ML
fold change from T=0, CFU-GM, agar culture (CFU-GM progenitor cells; P2, T = 6 h after injection): 24.01 fold
Absolute # of Progenitors per ML, CFU-GM, AGAR Culture (CFU-GM progenitor cells; P2, T = 9 h after injection): 1032 per ML
fold change from T=0, CFU-GM, agar culture (CFU-GM progenitor cells; P2, T = 9 h after injection): 10.28 fold
Absolute # of Progenitors per ML, CFU-GM, AGAR Culture (CFU-GM progenitor cells; P2, T = 24 h after injection): 371 per ML
fold change from T=0, CFU-GM, agar culture (CFU-GM progenitor cells; P2, T = 24 h after injection): 3.69 fold
Absolute # of Progenitors per ML, CFU-GM, AGAR Culture (CFU-GM progenitor cells; P3, T = 1 h after injection): 234 per ML
fold change from T=0, CFU-GM, agar culture (CFU-GM progenitor cells; P3, T = 1 h after injection): 1.67 fold
Absolute # of Progenitors per ML, CFU-GM, AGAR Culture (CFU-GM progenitor cells; P3, T = 3 h after injection): 1049 per ML
fold change from T=0, CFU-GM, agar culture (CFU-GM progenitor cells; P3, T = 3 h after injection): 7.47 fold
Absolute # of Progenitors per ML, CFU-GM, AGAR Culture (CFU-GM progenitor cells; P3, T = 6 h after injection): 1972 per ML
fold change from T=0, CFU-GM, agar culture (CFU-GM progenitor cells; P3, T = 6 h after injection): 14.04 fold
Absolute # of Progenitors per ML, CFU-GM, AGAR Culture (CFU-GM progenitor cells; P3, T = 9 h after injection): 1085 per ML
fold change from T=0, CFU-GM, agar culture (CFU-GM progenitor cells; P3, T = 9 h after injection): 7.72 fold
Absolute # of Progenitors per ML, CFU-GM, AGAR Culture (CFU-GM progenitor cells; P3, T = 24 h after injection): 159 per ML
fold change from T=0, CFU-GM, agar culture (CFU-GM progenitor cells; P3, T = 24 h after injection): 1.13 fold
Absolute # of Progenitors per ML, CFU-GM, AGAR Culture (CFU-GM progenitor cells; P4, T = 1 h after injection): 336 per ML
fold change from T=0, CFU-GM, agar culture (CFU-GM progenitor cells; P4, T = 1 h after injection): 2.71 fold
Absolute # of Progenitors per ML, CFU-GM, AGAR Culture (CFU-GM progenitor cells; P4, T = 3 h after injection): 1299 per ML
fold change from T=0, CFU-GM, agar culture (CFU-GM progenitor cells; P4, T = 3 h after injection): 10.46 fold
Absolute # of Progenitors per ML, CFU-GM, AGAR Culture (CFU-GM progenitor cells; P4, T = 6 h after injection): 1623 per ML
fold change from T=0, CFU-GM, agar culture (CFU-GM progenitor cells; P4, T = 6 h after injection): 13.07 fold
Absolute # of Progenitors per ML, CFU-GM, AGAR Culture (CFU-GM progenitor cells; P4, T = 9 h after injection): 1268 per ML
fold change from T=0, CFU-GM, agar culture (CFU-GM progenitor cells; P4, T = 9 h after injection): 10.22 fold
Absolute # of Progenitors per ML, CFU-GM, AGAR Culture (CFU-GM progenitor cells; P4, T = 24 h after injection): 162 per ML
fold change from T=0, CFU-GM, agar culture (CFU-GM progenitor cells; P4, T = 24 h after injection): 1.30 fold
Absolute # of Progenitors per ML, CFU-GM, AGAR Culture (CFU-GM progenitor cells; P5, T = 1 h after injection): 298 per ML
Absolute # of Progenitors per ML, CFU-GM, AGAR Culture (CFU-GM progenitor cells; P5, T = 3 h after injection): 664 per ML
Absolute # of Progenitors per ML, CFU-GM, AGAR Culture (CFU-GM progenitor cells; P5, T = 6 h after injection): 2153 per ML
Absolute # of Progenitors per ML, CFU-GM, AGAR Culture (CFU-GM progenitor cells; P5, T = 9 h after injection): 1326 per ML
Absolute # of Progenitors per ML, CFU-GM, AGAR Culture (CFU-GM progenitor cells; P5, T = 24 h after injection): 229 per ML
fold change from T=0, CFU-GM, agar culture (CFU-GM progenitor cells; P6, T = 1 h after injection): 2.87 fold
fold change from T=0, CFU-GM, agar culture (CFU-GM progenitor cells; P6, T = 3 h after injection): 6.40 fold
fold change from T=0, CFU-GM, agar culture (CFU-GM progenitor cells; P6, T = 6 h after injection): 20.75 fold
fold change from T=0, CFU-GM, agar culture (CFU-GM progenitor cells; P6, T = 9 h after injection): 12.78 fold
fold change from T=0, CFU-GM, agar culture (CFU-GM progenitor cells; P6, T = 24 h after injection): 2.20 fold
% CHG, CFU-GM, agar culture (CFU-GM progenitor cells; T = 1 h after injection): 180.8%
mean fold change compared to T 0, CFU-GM, agar culture, MEAN (CFU-GM progenitor cells; T = 1 h after injection): 2.81 fold
% CHG, CFU-GM, agar culture (CFU-GM progenitor cells; T = 3 h after injection): 754.1%
mean fold change compared to T 0, CFU-GM, agar culture, MEAN (CFU-GM progenitor cells; T = 3 h after injection): 8.54 fold
% CHG, CFU-GM, agar culture (CFU-GM progenitor cells; T = 6 h after injection): 1692.8%
mean fold change compared to T 0, CFU-GM, agar culture, MEAN (CFU-GM progenitor cells; T = 6 h after injection): 17.93 fold
% CHG, CFU-GM, agar culture (CFU-GM progenitor cells; T = 9 h after injection): 924.9%
mean fold change compared to T 0, CFU-GM, agar culture, MEAN (CFU-GM progenitor cells; T = 9 h after injection): 10.25 fold
% CHG, CFU-GM, agar culture (CFU-GM progenitor cells; T = 24 h after injection): 108.3%
mean fold change compared to T 0, CFU-GM, agar culture, MEAN (CFU-GM progenitor cells; T = 24 h after injection): 2.08 fold
time post-administration at which elevation of the white blood cell count maximized (white blood cells; human volunteers, 80 μg/kg s.c.): 6 h
white blood cells (white blood cells; volunteer P1, 1 Hr after 80 μg/kg s.c.): 14.8 ×10^3 WBC's
white blood cells (white blood cells; volunteer P1, 2 Hr after 80 μg/kg s.c.): 21.4 ×10^3 WBC's
white blood cells (white blood cells; volunteer P1, 4 Hr after 80 μg/kg s.c.): 23.2 ×10^3 WBC's
white blood cells (white blood cells; volunteer P1, 6 Hr after 80 μg/kg s.c.): 26.2 ×10^3 WBC's
white blood cells (white blood cells; volunteer P1, 9 Hr after 80 μg/kg s.c.): 22.3 ×10^3 WBC's
white blood cells (white blood cells; volunteer P1, 30 Min after 80 μg/kg s.c.): 8.02 ×10^3 WBC's
white blood cells (white blood cells; volunteer P1, Day 2 after 80 μg/kg s.c.): 7.07 ×10^3 WBC's
white blood cells (white blood cells; volunteer P2, 1 Hr after 80 μg/kg s.c.): 8.93 ×10^3 WBC's
white blood cells (white blood cells; volunteer P2, 2 Hr after 80 μg/kg s.c.): 13.5 ×10^3 WBC's
white blood cells (white blood cells; volunteer P2, 4 Hr after 80 μg/kg s.c.): 18.00 ×10^3 WBC's
white blood cells (white blood cells; volunteer P2, 6 Hr after 80 μg/kg s.c.): 19.2 ×10^3 WBC's
white blood cells (white blood cells; volunteer P2, 9 Hr after 80 μg/kg s.c.): 19.6 ×10^3 WBC's
white blood cells (white blood cells; volunteer P2, 30 Min after 80 μg/kg s.c.): 6.53 ×10^3 WBC's
white blood cells (white blood cells; volunteer P2, Day 2 after 80 μg/kg s.c.): 8.03 ×10^3 WBC's
white blood cells (white blood cells; volunteer P3, 1 Hr after 80 μg/kg s.c.): 9.28 ×10^3 WBC's
white blood cells (white blood cells; volunteer P3, 4 Hr after 80 μg/kg s.c.): 18.10 ×10^3 WBC's
white blood cells (white blood cells; volunteer P3, 6 Hr after 80 μg/kg s.c.): 17.9 ×10^3 WBC's
white blood cells (white blood cells; volunteer P3, 9 Hr after 80 μg/kg s.c.): 18.4 ×10^3 WBC's
white blood cells (white blood cells; volunteer P3, 30 Min after 80 μg/kg s.c.): 7.14 ×10^3 WBC's
white blood cells (white blood cells; volunteer P3, Day 2 after 80 μg/kg s.c.): 4.98 ×10^3 WBC's
white blood cells (white blood cells; volunteer P4, 1 Hr after 80 μg/kg s.c.): 7.38 ×10^3 WBC's
white blood cells (white blood cells; volunteer P4, 2 Hr after 80 μg/kg s.c.): 12.4 ×10^3 WBC's
white blood cells (white blood cells; volunteer P4, 4 Hr after 80 μg/kg s.c.): 14.6 ×10^3 WBC's
white blood cells (white blood cells; volunteer P4, 6 Hr after 80 μg/kg s.c.): 15.8 ×10^3 WBC's
white blood cells (white blood cells; volunteer P4, 9 Hr after 80 μg/kg s.c.): 13.9 ×10^3 WBC's
white blood cells (white blood cells; volunteer P4, 30 Min after 80 μg/kg s.c.): 4.37 ×10^3 WBC's
white blood cells (white blood cells; volunteer P4, Day 2 after 80 μg/kg s.c.): 4.98 ×10^3 WBC's
white blood cells (white blood cells; volunteer P5, 1 Hr after 80 μg/kg s.c.): 8.43 ×10^3 WBC's
white blood cells (white blood cells; volunteer P5, 4 Hr after 80 μg/kg s.c.): 16.90 ×10^3 WBC's
white blood cells (white blood cells; volunteer P5, 6 Hr after 80 μg/kg s.c.): 19.3 ×10^3 WBC's
white blood cells (white blood cells; volunteer P5, 9 Hr after 80 μg/kg s.c.): 19.00 ×10^3 WBC's
white blood cells (white blood cells; volunteer P5, 30 Min after 80 μg/kg s.c.): 6.08 ×10^3 WBC's
white blood cells (white blood cells; volunteer P5, Day 2 after 80 μg/kg s.c.): 4.57 ×10^3 WBC's
